According to patent US20140371280A1, “Method of treating diabetic peripheral neuropathy through amendment of pre-neuronal diabetic coagulative micro-angiopathy and neuronal deficiency of mitochondrial ATP production, and through induction of neuronal regeneration” (priority 2013, published 2014):

How the values were obtained:
platelet aggregation = settings: yes/no; cited from earlier work
neoangiogenesis = settings: yes/no; cited from earlier work
insulin sensitization = settings: yes/no; cited from earlier work
arterioles = settings: yes/no; cited from earlier work
[1] = tested on: diabetic peripheral neuropathy; assay: Clinical case: diabetic person with DPN of stocking-glove pattern and maceration in the big toe; assay type: in vivo, human patient
Text: An elderly patient of DPN with advanced DM of hyperglycemia, hypoinsulinemia, and HgbA1C elevated to 7.5%, presented themself with a typical stocking-glove pattern of DPN accompanied by maceration in the left big toe. A bitherapy of SAG+ALC halted their DPN.
The present DPN-relieving invention includes mainly four parts: (1) rescue with SAG-ALC of the tormenting DPN distress of pain, cold sensation, and maceration in the stocking-glove pattern; (2) expansion of the SAG-ALC regimen to include ALA; (3) extended use of the SAG+ALC+ALA principle for prevention of recurrence and maintenance; and (4) an extended use of the principle for induction of neuronal regeneration with SAG+ALC+ALA. • (1) Prompt halt of DPN symptoms with the application of SAG in order to amend the pre-neuronal coagulative microangiopathy and with ALC to amend the neuronal mitochondrial fatty acid transport across the carnithine window so as to help generating ATP through β-oxidation of fatty acids: the SAG+ALC principle. • A person with a 10-year history of DM developed signs and symptoms of DPN of the stocking-glove pattern and maceration in the big toe in the depth. […] The dosage could be 100 to 200 mg three times a day unless contraindicated by hemorrhagic diathesis. They were relieved of the distress but limitedly for 2-3 hours of post-dose. The patient was greatly depressed to learn that neuronal loss that could have already taken place might not be recovered with the SAG (Srinivasan et al. 2000)). • ALC was added at 1500 mg per day. The dosage range could be 500 to 4500 mg per day in the hope of eventual induction of neuronal regeneration (Tagliatela et al. 1991; Ishii et al. 2000). […] Thus, the SAG and ALC appeared to work synergistically. Within 2 months of this combination treatment, the soft swelling due to maceration in the depth of the big toe resolved (FIG. 1e). This ALC-SAG combination therapy may be continued as long as one's DPN status persists. […]

For `O=C1CCc2cc(OCCCCc3nnnn3C3CCCCC3)ccc2N1` [Pletaal, cilostazol], the “Anti-platelet Aggregation” value (platelet aggregation) is listed as “Yes”, the Neo-angiogenesis (neoangiogenesis) is listed as “No” and the Insulin-sensitization (insulin sensitization) is listed as “No”. The Arteriolar dilation (arterioles) was “Yes”.
In the case of `CC/C=C\C/C=C\C/C=C\C/C=C\C/C=C\CCCC(=O)OCC` [Epadel, ethyl icosapentate], the “Anti-platelet Aggregation” value (platelet aggregation) is listed as “Yes”, the Neo-angiogenesis (neoangiogenesis) is listed as “No” and the Insulin-sensitization (insulin sensitization) is listed as “No”. The Arteriolar dilation (arterioles) was “Yes”.
In the case of `CC1CNc2c(cccc2S(=O)(=O)N[C@@H](CCCNC(=N)N)C(=O)N2CC[C@@H](C)C[C@@H]2C(=O)O)C1` (some centres unmarked) [Novastan, argatroban hydrate], the “Anti-platelet Aggregation” value (platelet aggregation) is given as “Yes”, the Neo-angiogenesis (neoangiogenesis) is given as “No” and the Insulin-sensitization (insulin sensitization) is given as “No”. For the same compound, the Arteriolar dilation (arterioles) was “Yes”.
In the case of `COc1cccc(CCc2ccccc2OCC(CN(C)C)OC(=O)CCC(=O)O)c1` (centres unmarked) [SAG, sarpogrelate], the “Anti-platelet Aggregation” value (platelet aggregation) is given as “Yes”, the Neo-angiogenesis (neoangiogenesis) is given as “Yes” and the Insulin-sensitization (insulin sensitization) is given as “Yes”. The Arteriolar dilation (arterioles) was “Yes”, the “Duration of relief of distress post-dose” value ([1]; SAG 600 mg per day, monotherapy) was 2 to 3 h and the “Duration of halt of DPN's pain and cold intolerance per dose” value ([1]; each 200 mg dose of SAG, monotherapy) was 3 to 4 h. The “Effect on DPN symptoms (pain, cold sensation, numbness)” value ([1]; patient, SAG 600 mg, ALC 1500 mg, ALA 600 mg per day, EPR 100 mg three times a day, as combined) was “appreciably but passingly alleviated”.
For Heparin, the “Anti-platelet Aggregation” value (platelet aggregation) is given as “Yes”, the Neo-angiogenesis (neoangiogenesis) is given as “No” and the Insulin-sensitization (insulin sensitization) is given as “No”. For the same compound, the Arteriolar dilation (arterioles) was “No”.
